Measurements taken from patent US8815849B2, “Hetero-bicyclic derivatives as HCV inhibitors” (Janssen R&D Ireland, priority 2010, dated 2014).
Like-named read-outs stand apart in the source and are kept apart here.

Legend:
[1] = test system: HCV replicon (Huh-Luc cells, NS3-NS5B regions of HCV type 1b); assay: HCV replicon assay (Huh-7 luc/neo, luciferase readout); assay type: cell-based; settings: Huh-Luc replicon cells, three days incubation, luciferase activity, average if tested more than once, read-out: HCV-REP-HUH7LUC_EC50
Source text: The in vitro antiviral activity against HCV of the compounds of formula I can be tested in a cellular HCV replicon system based on Lohmann et al. (1999) Science 285:110-113, with the further modifications described by Krieger et al. (2001) Journal of Virology 75: 4614-4624 (incorporated herein by reference), which is further exemplified in the examples section. This model, while not a complete infection model for HCV, is widely accepted as the most robust and efficient model of autonomous HCV RNA replication currently available. It will be appreciated that it is important to distinguish between compounds that specifically interfere with HCV functions from those that exert cytotoxic or cytostatic effects in the HCV replicon model, and as a consequence cause a decrease in HCV RNA or linked reporter enzyme concentration. Assays are known in the field for the evaluation of cellular cytotoxicity based for example on the activity of mitochondrial enzymes using fluorogenic redox dyes such as resazurin. Furthermore, cellular counter screens exist for the evaluation of non-selective inhibition of linked reporter gene activity, such as firefly luciferase. Appropriate cell types can be equipped by stable transfection with a luciferase reporter gene whose expression is dependent on a constitutively active gene promoter, and such cells can be used as a counter-screen to eliminate non-selective inhibitors.
The compounds of formula (I) were examined for inhibitory activity in the HCV replicon. This cellular assay is based on a bicistronic expression construct, as described by Lohmann et al. (1999) Science vol. 285 pp. 110-113 with modifications described by Krieger et al. (2001) Journal of Virology 75: 4614-4624, in a multi-target screening strategy.
The assay utilized the stably transfected cell line Huh-7 luc/neo (hereafter referred to as Huh-Luc). This cell line harbors an RNA encoding a bicistronic expression construct comprising the wild type NS3-NS5B regions of HCV type 1b translated from an
Internal Ribosome Entry Site (IRES) from encephalomyocarditis virus (EMCV), preceded by a reporter portion (FfL-luciferase), and a selectable marker portion (neo^R, neomycine phosphotransferase). The construct is flanked by 5′ and 3′ NTRs (non-translated regions) from HCV type 1b. Continued culture of the replicon cells in the presence of G418 (neo^R) is dependent on the replication of the HCV RNA. The stably transfected replicon cells that express HCV RNA, which replicates autonomously and to high levels, encoding inter alia luciferase, were used for screening the antiviral compounds.
The replicon cells were plated in 384 well plates in the presence of the test and control compounds which were added in various concentrations. Following an incubation of three days, HCV replication was measured by assaying luciferase activity (using standard luciferase assay substrates and reagents and a Perkin Elmer ViewLux™ ultraHTS microplate imager). Replicon cells in the control cultures have high luciferase expression in the absence of any inhibitor. The inhibitory activity of the compound on luciferase activity was monitored on the Huh-Luc cells, enabling a dose-response curve for each test compound. EC50 values were then calculated, which represent the amount of compound required to decrease the level of detected luciferase activity by 50%, or more specifically, to reduce the ability of the genetically linked HCV replicon RNA to replicate.
Where a compound of formula (I) was tested more than once in the replicon assay, the average of all test results is given in this Table 1.

[2] = test system: LLC-MDR1 monolayers; assay type: in vitro ADME; settings: pig, LLC-PK1, 120 min
Method: Assay Description for the Measurement of Transepithelial Transport of Test Compounds Through LLC-MDR1 Monolayers
The integrity of the cellular monolayer was assessed in each incubation well through the inclusion of the fluorescent, low permeability marker compound, Fluorescein.
In detail, LLC-MDR1 cells (LLC-PK1 cells stably transduced with MDR1 in a trans-well system) were seeded on 24-well cell culture inserts (Millicell®-PCF, 0.4 μm, 13 mm Ø, 0.7 cm^2) at 400 000 cells/cm^2. Cell culture medium consists of Medium 199 supplemented with 10% Fetal Bovine Serum (FBS) and 100 U/mL Penicillin/streptomycin and was replaced the day after seeding and the day before the experiment. The transport experiment was performed 5 days after seeding. On the day of the experiment, solutions of the test compounds were applied to the apical side of the monolayers to assess transport in the AtoB direction,. The medium used in the assay was (OPTI-MEM (1×) (GIBCO) with 1 w/v % Bovine Serum Albumin. Inserts were incubated at 37° C. in a humidified incubator containing 5% CO2. Samples from the acceptor and donor compartments were collected after an incubation time of 120 min, to assess the permeability and to allow estimation of the test compound recovery during the experiment, respectively. Transport experiments were performed in triplicate. Absolute test compound concentrations were measured using LC-MS/MS and quantified via a calibration curve.

## COC(=O)N[C@H](C(=O)N1CCC[C@H]1c1ncc(-c2ccc3cc(-c4ccc5c(=O)[nH]c([C@@H]6CCCN6C(=O)[C@H](NC(=O)OC(C)(C)C)c6ccccc6)nc5c4)ccc3c2)[nH]1)C(C)C [Compound 44-1]
[1]; Hepatitis C virus, Huh-7, 72 h
  EC50: 8.1 nM
[2]
  A->B permeability (Papp × 10^−6 cm/sec) in the presence the P-gp inhibitor GF120918: 2.7 10^−6 cm/sec

## COC(=O)N[C@H](C(=O)N1CCC[C@H]1c1ncc(-c2ccc3cc(-c4ccc5c(=O)[nH]c([C@@H]6CCCN6C(=O)[C@@H](NC(=O)OC)C(C)C)nc5c4)ccc3c2)[nH]1)C(C)C [Compound 44]
[1]; Hepatitis C virus, Huh-7, 72 h
  EC50: 0.005 nM
[2]
  A->B permeability (Papp × 10^−6 cm/sec) in the presence the P-gp inhibitor GF120918: 6.9 10^−6 cm/sec

## COC(=O)N[C@H](C(=O)N1CCCC1c1[nH]c2cc(-c3ccc4cc(-c5cnc([C@@H]6CCCN6C(=O)[C@@H](NC(=O)OC)C(C)C)[nH]5)ccc4c3)ccc2c(=O)c1F)C(C)C (single isomer, unassigned) [Compound 110a]
[1]
  EC50: 0.048 nM
[2]
  A->B permeability (Papp × 10^−6 cm/sec) in the presence the P-gp inhibitor GF120918: 0.4 10^−6 cm/sec

## COC(=O)N[C@H](C(=O)N1CCCC1c1cc(=O)c2ccc(-c3ccc4cc(-c5cnc([C@@H]6CCCN6C(=O)[C@@H](NC(=O)OC)C(C)C)[nH]5)ccc4c3)cc2[nH]1)C(C)C (single isomer, unassigned) [Compound 13b]
[1]; Hepatitis C virus, Huh-7, 72 h
  EC50: 0.022 nM
[2]
  A->B permeability (Papp × 10^−6 cm/sec) in the presence the P-gp inhibitor GF120918: 0.5 10^−6 cm/sec

## COC(=O)N[C@H](C(=O)N1CCC[C@H]1c1ncc(-c2ccc3cc(-c4ccc5c(=O)[nH]c([C@@H]6CCCN6C(=O)[C@H](NC(=O)OC)c6ccccc6)nc5c4)ccc3c2)[nH]1)C(C)C [Compound 44-2]
[1]; Hepatitis C virus, Huh-7, 72 h
  EC50: 0.084 nM
[2]
  A->B permeability (Papp × 10^−6 cm/sec) in the presence the P-gp inhibitor GF120918: 5.5 10^−6 cm/sec

## COC(=O)N[C@H](C(=O)N1CCC[C@H]1c1ncc(-c2ccc3cc(-c4ccc5c(c4)NC([C@@H]4CCCN4C(=O)[C@H](NC(=O)OC)c4ccccc4)=NS5(=O)=O)ccc3c2)[nH]1)C(C)C [Compound 87]
[1]; Hepatitis C virus, Huh-7, 72 h
  EC50: 0.008 nM
[2]
  A->B permeability (Papp × 10^−6 cm/sec) in the presence the P-gp inhibitor GF120918: 1.0 10^−6 cm/sec

## COC(=O)N[C@H](C(=O)N1CCCC1c1[nH]c2cc(-c3ccc4cc(-c5cnc([C@@H]6CCCN6C(=O)[C@@H](NC(=O)OC)C(C)C)[nH]5)ccc4c3)ccc2c(=O)c1C)C(C)C (single isomer, unassigned) [Compound 102a]
[1]; Hepatitis C virus, Huh-7, 72 h
  EC50: 0.069 nM
[2]
  A->B permeability (Papp × 10^−6 cm/sec) in the presence the P-gp inhibitor GF120918: <0.6 10^−6 cm/sec

## COC(=O)N[C@H](C(=O)N1CCC[C@H]1C1=NS(=O)(=O)c2ccc(-c3ccc4cc(-c5cnc([C@@H]6CCCN6C(=O)[C@@H](NC(=O)OC)C(C)C)[nH]5)ccc4c3)cc2N1)C(C)C [Compound 84]
[1]; Hepatitis C virus, Huh-7, 72 h
  EC50: 0.034 nM
[2]
  A->B permeability (Papp × 10^−6 cm/sec) in the presence the P-gp inhibitor GF120918: 0.4 10^−6 cm/sec

## COC(=O)N[C@H](C(=O)N1CCC[C@H]1C1=Nc2cc(-c3ccc4cc(-c5cnc([C@@H]6CCCN6C(=O)[C@@H](NC(=O)OC)C(C)C)[nH]5)ccc4c3)ccc2C2(COC2)N1)C(C)C [Compound 70]
[1]; Hepatitis C virus, Huh-7, 72 h
  EC50: 0.009 nM
[2]
  A->B permeability (Papp × 10^−6 cm/sec) in the presence the P-gp inhibitor GF120918: 7.8 10^−6 cm/sec

## COC(=O)N[C@H](C(=O)N1CCCCC1c1cc(=O)c2ccc(-c3ccc4cc(-c5cnc([C@@H]6CCCN6C(=O)[C@@H](NC(=O)OC)C(C)C)[nH]5)ccc4c3)cc2[nH]1)C(C)C (some centres unmarked) [Compound 76]
[1]; Hepatitis C virus, Huh-7, 72 h
  EC50: 0.034 nM
[2]
  A->B permeability (Papp × 10^−6 cm/sec) in the presence the P-gp inhibitor GF120918: 3.1 10^−6 cm/sec

## COC(=O)N[C@H](C(=O)N1CCC[C@H]1c1ncc(-c2ccc3cc(-c4ccc5c(=O)[nH]c([C@@H]6CC(C)(C)CN6C(=O)[C@@H](NC(=O)OC)C(C)C)nc5c4)ccc3c2)[nH]1)C(C)C [Compound 50]
[1]; Hepatitis C virus, Huh-7, 72 h
  EC50: 0.006 nM
[2]
  A->B permeability (Papp × 10^−6 cm/sec) in the presence the P-gp inhibitor GF120918: 5.8 10^−6 cm/sec

## COC(=O)N[C@H](C(=O)N1CCCC1c1[nH]c2cc(-c3ccc4cc(-c5cnc([C@@H]6CCCN6C(=O)[C@@H](NC(=O)OC)C(C)C)[nH]5)ccc4c3)ccc2c(=O)c1F)C(C)C (single isomer, unassigned) [Compound 110b]
[1]
  EC50: 0.48 nM
[2]
  A->B permeability (Papp × 10^−6 cm/sec) in the presence the P-gp inhibitor GF120918: 2.3 10^−6 cm/sec

## COC(=O)N[C@H](C(=O)N1CCC[C@H]1c1ncc(-c2ccc3cc(-c4ccc5nc([C@@H]6CCCN6C(=O)[C@@H](NC(=O)OC)C(C)C)[nH]c(=O)c5c4)ccc3c2)[nH]1)C(C)C [Compound 35]
[1]; Hepatitis C virus, Huh-7, 72 h
  EC50: 0.64 nM
[2]
  A->B permeability (Papp × 10^−6 cm/sec) in the presence the P-gp inhibitor GF120918: 5.0 10^−6 cm/sec
